# Measurements: ChEMBL document CHEMBL1128530, “Alpha- and beta-adrenoceptors: from the gene to the clinic. 1. Molecular biology and adrenoceptor subclassification” (J Med Chem, 1995)
# Assays:
# [1] = target: T1, Alpha-2 adrenergic receptor (Mus musculus, UniProt P30545+Q01338+Q01337); assay: Compound was evaluated for inhibition of binding of [3H]MK-91 to Alpha-2 adrenergic receptor in mouse Malpha2-10H clone; type: protein assay
# T1 sequence (P30545 whole entry): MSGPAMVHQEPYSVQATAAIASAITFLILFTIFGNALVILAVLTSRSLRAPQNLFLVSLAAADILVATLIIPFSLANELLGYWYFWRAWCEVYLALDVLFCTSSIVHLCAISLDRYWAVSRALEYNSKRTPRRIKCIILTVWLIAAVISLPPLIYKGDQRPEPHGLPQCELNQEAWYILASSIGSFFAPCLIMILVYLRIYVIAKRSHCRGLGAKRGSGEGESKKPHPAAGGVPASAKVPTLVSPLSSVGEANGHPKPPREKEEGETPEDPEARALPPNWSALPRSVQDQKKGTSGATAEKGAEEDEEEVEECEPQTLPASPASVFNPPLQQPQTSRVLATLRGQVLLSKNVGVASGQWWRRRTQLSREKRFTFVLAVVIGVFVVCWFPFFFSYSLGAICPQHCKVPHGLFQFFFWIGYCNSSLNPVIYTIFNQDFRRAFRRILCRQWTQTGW
# T1 sequence (Q01338 whole entry): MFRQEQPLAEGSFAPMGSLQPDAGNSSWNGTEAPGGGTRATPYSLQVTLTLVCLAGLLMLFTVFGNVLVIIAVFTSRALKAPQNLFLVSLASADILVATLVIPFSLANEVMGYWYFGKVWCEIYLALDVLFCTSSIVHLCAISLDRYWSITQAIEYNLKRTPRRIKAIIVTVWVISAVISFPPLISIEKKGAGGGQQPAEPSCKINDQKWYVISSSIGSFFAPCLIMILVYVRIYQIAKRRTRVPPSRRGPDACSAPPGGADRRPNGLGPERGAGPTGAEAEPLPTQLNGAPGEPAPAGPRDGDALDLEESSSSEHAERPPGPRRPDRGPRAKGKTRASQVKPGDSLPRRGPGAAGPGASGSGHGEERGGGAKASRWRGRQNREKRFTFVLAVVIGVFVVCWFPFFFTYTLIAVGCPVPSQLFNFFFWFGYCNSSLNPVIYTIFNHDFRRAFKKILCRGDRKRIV
# T1 sequence (Q01337 whole entry): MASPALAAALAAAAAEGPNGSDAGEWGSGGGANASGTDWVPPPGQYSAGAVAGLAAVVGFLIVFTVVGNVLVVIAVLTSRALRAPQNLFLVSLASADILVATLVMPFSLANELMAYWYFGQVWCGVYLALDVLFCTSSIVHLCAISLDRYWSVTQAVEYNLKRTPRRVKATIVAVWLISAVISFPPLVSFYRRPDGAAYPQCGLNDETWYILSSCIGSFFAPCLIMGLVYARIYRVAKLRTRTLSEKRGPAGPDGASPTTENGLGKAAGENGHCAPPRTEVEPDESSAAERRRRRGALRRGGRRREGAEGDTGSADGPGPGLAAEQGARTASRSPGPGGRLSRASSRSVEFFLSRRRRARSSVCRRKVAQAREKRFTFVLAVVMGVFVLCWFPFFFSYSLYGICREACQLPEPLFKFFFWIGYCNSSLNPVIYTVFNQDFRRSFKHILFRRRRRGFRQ
# [2] = target: T1, Alpha-2 adrenergic receptor; assay: Compound was evaluated for inhibition of binding of [3H]MK-91 to Alpha-2 adrenergic receptor in mouse Malpha2-4H; type: protein assay
# [3] = target: T2, Alpha-2A adrenergic receptor (Bos taurus, UniProt Q28838); assay: Compound was evaluated for inhibition of binding of [3H]MK-91 to Alpha-2 adrenergic receptor in bovine pineal
# T2 sequence (Q28838 whole entry): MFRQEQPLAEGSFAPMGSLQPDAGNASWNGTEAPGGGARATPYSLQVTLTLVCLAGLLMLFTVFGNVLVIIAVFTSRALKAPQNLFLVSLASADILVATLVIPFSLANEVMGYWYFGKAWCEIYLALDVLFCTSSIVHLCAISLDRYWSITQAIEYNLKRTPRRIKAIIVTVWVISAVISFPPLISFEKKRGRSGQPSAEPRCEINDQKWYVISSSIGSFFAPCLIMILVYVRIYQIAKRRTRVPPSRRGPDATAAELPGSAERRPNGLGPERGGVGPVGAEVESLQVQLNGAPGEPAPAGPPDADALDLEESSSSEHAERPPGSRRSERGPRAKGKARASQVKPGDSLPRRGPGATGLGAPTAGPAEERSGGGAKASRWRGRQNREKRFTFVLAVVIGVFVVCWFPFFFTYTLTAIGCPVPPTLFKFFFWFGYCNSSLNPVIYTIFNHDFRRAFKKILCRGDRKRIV
# [4] = target: T3, Alpha-2A adrenergic receptor (Sus scrofa, UniProt P18871); assay: Compound was evaluated for inhibition of binding of [3H]MK-91 to Alpha-2 adrenergic receptor in porcine alpha2-clone
# T3 sequence (P18871 whole entry): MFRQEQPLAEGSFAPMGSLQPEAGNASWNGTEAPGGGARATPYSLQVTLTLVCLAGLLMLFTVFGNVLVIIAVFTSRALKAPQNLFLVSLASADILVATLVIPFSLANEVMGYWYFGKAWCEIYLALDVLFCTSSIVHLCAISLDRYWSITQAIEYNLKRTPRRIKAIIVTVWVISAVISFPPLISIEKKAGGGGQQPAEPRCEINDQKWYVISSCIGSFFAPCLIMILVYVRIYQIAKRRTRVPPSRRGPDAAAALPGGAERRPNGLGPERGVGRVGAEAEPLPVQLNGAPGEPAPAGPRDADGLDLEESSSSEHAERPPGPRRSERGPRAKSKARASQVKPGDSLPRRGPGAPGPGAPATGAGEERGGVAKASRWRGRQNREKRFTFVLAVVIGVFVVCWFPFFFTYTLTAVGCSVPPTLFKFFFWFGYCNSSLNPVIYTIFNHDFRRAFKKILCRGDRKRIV
# [5] = target: T1, Alpha-2 adrenergic receptor; assay: Compound was evaluated for inhibition of binding of [3H]-MK-91 to Alpha-2 adrenergic receptor in mouse NG-108 cells; type: cell-based
structure (smiles),measurement,setting,value
Cc1cc(C(C)(C)C)c(O)c(C)c1CC1=NCCN1 [OXYMETAZOLINE],Ki,[1],33 nM
same,Ki,[2],109 nM
same,Ki,[3],1.5 nM
same,Ki,[4],21 nM
same,Ki,[5],132 nM
